# In ChEMBL document CHEMBL1158870, “Antitumor agents. 180. Chemical Studies and cytotoxic evaluation of cumingianosides and cumindysoside A, antileukemic triterpene glucosides with a 14,18-cycloapotirucallane skeleton” (1997):
# Legend:
# CCRF-CEM = assay: Cytotoxicity against human CCRF-CEM cells by SRB assay; format: functional
# [1] = Cytotoxicity against human HL60(TB) cells by SRB assay; format: functional, HL-60(TB); conditions: HL-60
# K562 = assay: Cytotoxicity against human K562 cells by SRB assay; format: functional
# MOLT-4 = assay: Cytotoxicity against human MOLT4 cells by SRB assay; format: functional
# RPMI-8226 = assay: Cytotoxicity against human RPMI8226 cells by SRB assay; format: functional
# SR = assay: Cytotoxicity against human SR cells by SRB assay; format: functional
# A549 = assay: Cytotoxicity against human A549 cells by SRB assay; format: functional
# EKVX = assay: Cytotoxicity against human EKVX cells by SRB assay; format: functional
# HOP-62 = assay: Cytotoxicity against human HOP62 cells by SRB assay; format: functional
# HOP-92 = assay: Cytotoxicity against human HOP92 cells by SRB assay; format: functional
# NCI-H226 = assay: Cytotoxicity against human NCI-H226 cells by SRB assay; format: functional
# NCI-H23 = assay: Cytotoxicity against human NCI-H23 cells by SRB assay; format: functional
# NCI-H322M = assay: Cytotoxicity against human NCI-H322M cells by SRB assay; format: functional
# NCI-H460 = assay: Cytotoxicity against human NCI-H460 cells by SRB assay; format: functional
# NCI-H522 = assay: Cytotoxicity against human NCI-H522 cells by SRB assay; format: functional
# COLO 205 = assay: Cytotoxicity against human COLO205 cells by SRB assay; format: functional
# HCC 2998 = assay: Cytotoxicity against human HCC2998 cells by SRB assay; format: functional
# HCT-116 = assay: Cytotoxicity against human HCT116 cells by SRB assay; format: functional
# HCT-15 = assay: Cytotoxicity against human HCT15 cells by SRB assay; format: functional
# HT-29 = assay: Cytotoxicity against human HT29 cells by SRB assay; format: functional
# KM12 = assay: Cytotoxicity against human KM12 cells by SRB assay; format: functional
# SW-620 = assay: Cytotoxicity against human SW620 cells by SRB assay; format: functional
# SF-268 = assay: Cytotoxicity against human SF268 cells by SRB assay; format: functional
# SF-295 = assay: Cytotoxicity against human SF295 cells by SRB assay; format: functional
# SNB-19 = assay: Cytotoxicity against human SNB19 cells by SRB assay; format: functional
# SNB-75 = assay: Cytotoxicity against human SNB75 cells by SRB assay; format: functional
# U-251 = assay: Cytotoxicity against human U251 cells by SRB assay; format: functional
# LOX IMVI = assay: Cytotoxicity against human LOXIMVI cells by SRB assay; format: functional
# Malme-3M = assay: Cytotoxicity against human MALME-3M cells by SRB assay; format: functional
# M14 = assay: Cytotoxicity against human M14 cells by SRB assay; format: functional
# SK-MEL-2 = assay: Cytotoxicity against human SK-MEL-2 cells by SRB assay; format: functional
# SK-MEL-28 = assay: Cytotoxicity against human SK-MEL-28 cells by SRB assay; format: functional
# SK-MEL-5 = assay: Cytotoxicity against human SK-MEL-5 cells by SRB assay; format: functional
# UACC-257 = assay: Cytotoxicity against human UACC257 cells by SRB assay; format: functional
# UACC-62 = assay: Cytotoxicity against human UACC62 cells by SRB assay; format: functional
# IGROV-1 = assay: Cytotoxicity against human IGROV1 cells by SRB assay; format: functional
# OVCAR-3 = assay: Cytotoxicity against human OVCAR-3 cells by SRB assay; format: functional
# OVCAR-4 = assay: Cytotoxicity against human OVCAR4 cells by SRB assay; format: functional
# OVCAR-5 = assay: Cytotoxicity against human OVCAR5 cells by SRB assay; format: functional
# OVCAR-8 = assay: Cytotoxicity against human OVCAR8 cells by SRB assay; format: functional
# SK-OV-3 = assay: Cytotoxicity against human SKOV3 cells by SRB assay; format: functional
# [2] = Cytotoxicity against human 786-O cells by SRB assay; format: functional; conditions: 786-0
# A498 = assay: Cytotoxicity against human A498 cells by SRB assay; format: functional
# ACHN = assay: Cytotoxicity against human ACHN cells by SRB assay; format: functional
# CAKI-1 = assay: Cytotoxicity against human Caki1 cells by SRB assay; format: functional
# RXF 393 = assay: Cytotoxicity against human RXF393 cells by SRB assay; format: functional
# SN12C = assay: Cytotoxicity against human SN12C cells by SRB assay; format: functional
# UO-31 = assay: Cytotoxicity against human UO31 cells by SRB assay; format: functional
# PC-3 = assay: Cytotoxicity against human PC3 cells by SRB assay; format: functional
# DU-145 = assay: Cytotoxicity against human DU145 cells by SRB assay; format: functional
# MCF7 = assay: Cytotoxicity against human MCF7 cells by SRB assay; format: functional
# [3] = Cytotoxicity against human MCF7/ADR cells by SRB assay; format: functional; conditions: NCI/ADR-RES
# MDA-MB-231 = assay: Cytotoxicity against human MDA-MB-231 cells by SRB assay; format: functional
# [4] = Cytotoxicity against human Hs 578T cells by SRB assay; format: functional
# MDA-MB-435 = assay: Cytotoxicity against human MDA-MB-435 cells by SRB assay; format: functional
# MDA-N = assay: Cytotoxicity against human MDA-N cells by SRB assay; format: functional
# BT-549 = assay: Cytotoxicity against human BT549 cells by SRB assay; format: functional
# T47D = assay: Cytotoxicity against human T47D cells by SRB assay; format: functional
# Leukemia cell = assay: Cytotoxicity against human Leukemia cells by SRB assay; format: functional
# NSCLC = assay: Cytotoxicity against human NSCLC cells by SRB assay; format: functional
# [5] = Cytotoxicity against human Colon cancer cells by SRB assay; format: functional; conditions: Cancer cell lines
# [6] = Cytotoxicity against human CNS cancer cells by SRB assay; format: functional; conditions: Cancer cell lines
# [7] = Cytotoxicity against human melanoma cells by SRB assay; format: functional; conditions: Melanoma cell
# [8] = Cytotoxicity against human ovarian cancer cells by SRB assay; format: functional; conditions: Cancer cell lines
# [9] = Cytotoxicity against human prostate cancer cells by SRB assay; format: functional; conditions: Cancer cell lines
# [10] = Cytotoxicity against human breast cancer cells by SRB assay; format: functional; conditions: Cancer cell lines
# [11] = Cytotoxicity against human renal cancer cells by SRB assay; format: functional; conditions: Cancer cell lines
compound,measurement,setting,value
CC(=O)OC[C@H]1O[C@@H](O[C@@H]2C[C@H]3C(C)(C)[C@H](OC(C)=O)CC[C@]3(C)[C@H]3CC[C@@]45C[C@H](O)C[C@H](C)[C@@H]4CC=C5[C@@]32C)[C@H](O)[C@@H](O)[C@@H]1O,GI50,CCRF-CEM,2.14 µM
same,GI50,[1],2.09 µM
same,GI50,K562,2.95 µM
same,GI50,MOLT-4,2.14 µM
same,GI50,RPMI-8226,2.82 µM
same,GI50,SR,1.82 µM
same,GI50,A549,4.79 µM
same,GI50,EKVX,7.08 µM
same,GI50,HOP-62,11.2 µM
same,GI50,HOP-92,4.9 µM
same,GI50,NCI-H226,4.9 µM
same,GI50,NCI-H23,3.89 µM
same,GI50,NCI-H322M,6.61 µM
same,GI50,NCI-H460,3.31 µM
same,GI50,NCI-H522,3.09 µM
same,GI50,COLO 205,1.82 µM
same,TGI,COLO 205,3.2 µM
same,GI50,HCC 2998,2.09 µM
same,TGI,HCC 2998,3.8 µM
same,GI50,HCT-116,1.78 µM
same,TGI,HCT-116,3.5 µM
same,GI50,HCT-15,8.91 µM
same,TGI,HCT-15,22.3 µM
same,GI50,HT-29,1.7 µM
same,TGI,HT-29,3.3 µM
same,GI50,KM12,2.4 µM
same,TGI,KM12,7.6 µM
same,GI50,SW-620,4.57 µM
same,TGI,SW-620,18.1 µM
same,GI50,SF-268,4.07 µM
same,GI50,SF-295,3.89 µM
same,GI50,SNB-19,3.89 µM
same,GI50,SNB-75,3.72 µM
same,GI50,U-251,3.39 µM
same,GI50,LOX IMVI,1.82 µM
same,GI50,Malme-3M,9.33 µM
same,GI50,M14,3.89 µM
same,GI50,SK-MEL-2,2.45 µM
same,GI50,SK-MEL-28,8.32 µM
same,GI50,SK-MEL-5,3.89 µM
same,GI50,UACC-257,3.39 µM
same,GI50,UACC-62,5.25 µM
same,GI50,IGROV-1,3.16 µM
same,GI50,OVCAR-3,3.89 µM
same,GI50,OVCAR-4,4.37 µM
same,GI50,OVCAR-5,2.34 µM
same,GI50,OVCAR-8,4.47 µM
same,GI50,SK-OV-3,6.03 µM
same,GI50,[2],4.37 µM
same,GI50,A498,14.1 µM
same,GI50,ACHN,5.13 µM
same,GI50,CAKI-1,9.55 µM
same,GI50,RXF 393,2.63 µM
same,GI50,SN12C,3.98 µM
same,GI50,UO-31,14.8 µM
same,GI50,PC-3,3.16 µM
same,GI50,DU-145,10.5 µM
same,GI50,MCF7,4.47 µM
same,GI50,[3],15.1 µM
same,GI50,MDA-MB-231,2.04 µM
same,GI50,[4],4.07 µM
same,GI50,MDA-MB-435,3.72 µM
same,GI50,MDA-N,4.27 µM
same,GI50,BT-549,11 µM
same,GI50,T47D,4.37 µM
same,TGI,Leukemia cell,7 µM
same,TGI,NSCLC,18.1 µM
same,TGI,[5],8.8 µM
same,TGI,[6],15 µM
same,TGI,[7],14.4 µM
same,TGI,[8],13.5 µM
same,TGI,[9],16.7 µM
same,TGI,[10],17.9 µM
same,TGI,[11],18.8 µM
